Data as given in patent publication US6608082B1, “Treatment of erectile dysfunction using isoquinoline compound melanocortin receptor ligands” (Lion Bioscience AG, priority 1998, dated 2003).
Where two headings read alike, the source gives them in different places.

What was measured:
[1] = molecular target: T1, MCR-4 (Homo sapiens, UniProt P32245); test: Melanocortin receptor binding assay, competition with 125I-HP 467, HEK 293 cells expressing hMCR-4; conditions: for IC50: read-out: MC-4 IC50
T1 construct: expressed in transfected cells; host or cells: HEK 293
How it was run: (§1)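 Test compounds compete on intact HEK 293 cells carrying hMCR-1 (2×10^4 per tube) or hMCR-4 (4×10^3 per tube), suspended in PBS, 10% calf serum, 1 mM CaCl2.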

[2] = molecular target: T2, MCR-1 (Homo sapiens, UniProt Q01726); test: Melanocortin receptor binding assay, competition with 125I-HP 467, HEK 293 cells expressing hMCR-1; conditions: for IC50: read-out: MC-1 IC50; for % Disp. MC-1 10 μM: displacement of 125I-HP 467 at 10 μM isoquinoline compound
T2 construct: expressed in transfected cells; host or cells: HEK 293
How it was run: as §1

[3] = TRG 2405 section, inhibition of binding of 125I-HP 467, HEK 293 cells expressing MCR-4
[4] = TRG 2405 section, inhibition of binding of 125I-HP 467, HEK 293 cells expressing MCR-1
[5] = TRG 2406 and TRG 2407 libraries, inhibition of binding of 125I-HP 467

T1 sequence (P32245 whole entry): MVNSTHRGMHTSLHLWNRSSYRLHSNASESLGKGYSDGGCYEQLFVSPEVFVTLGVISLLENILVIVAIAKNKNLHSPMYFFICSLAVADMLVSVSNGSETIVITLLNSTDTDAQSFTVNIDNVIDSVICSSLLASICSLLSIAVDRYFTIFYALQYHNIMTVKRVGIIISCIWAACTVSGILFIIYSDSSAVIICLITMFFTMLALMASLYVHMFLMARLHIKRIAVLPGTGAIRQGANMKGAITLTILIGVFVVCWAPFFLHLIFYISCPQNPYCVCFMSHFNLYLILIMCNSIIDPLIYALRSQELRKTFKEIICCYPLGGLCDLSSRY
T2 sequence (Q01726 whole entry): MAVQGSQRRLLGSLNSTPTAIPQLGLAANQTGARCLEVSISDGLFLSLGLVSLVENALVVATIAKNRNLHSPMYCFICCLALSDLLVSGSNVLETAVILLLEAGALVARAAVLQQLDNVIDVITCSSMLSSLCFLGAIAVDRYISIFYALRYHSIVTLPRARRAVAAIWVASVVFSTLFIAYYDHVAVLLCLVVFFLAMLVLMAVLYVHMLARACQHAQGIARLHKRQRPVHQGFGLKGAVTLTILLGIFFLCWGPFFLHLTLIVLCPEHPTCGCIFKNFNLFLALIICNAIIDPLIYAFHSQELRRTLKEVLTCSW

| Structure (SMILES) | IC50 [1, 5] [µM] | IC50 [2, 5] [µM] | further results |
| --- | --- | --- | --- |
| CNC(CN)CN1Cc2ccccc2C(CNC2CCCCC2)C1c1ccc(C(F)(F)F)cc1 (stereo not shown) [TRG 2405-148] | – | – | IC50 [1, 3]: 8.95 µM; IC50 [2, 4]: 10.3 µM; % Disp. MC-1 10 μM ([2]; first of duplicate): 63.7%; % Disp. MC-1 10 μM ([2]; second of duplicate): 57.4% |
| CNC(CN)CN1Cc2ccccc2C(CNC2CCCCC2)C1c1ccc([N+](=O)[O-])o1 (stereo not shown) [TRG 2405-170] | – | – | IC50 [1, 3]: 10.2 µM; IC50 [2, 4]: 4.81 µM; % Disp. MC-1 10 μM ([2]; first of duplicate): 68.4%; % Disp. MC-1 10 μM ([2]; second of duplicate): 57.5% |
| CNC(CN)CCCCN1Cc2ccccc2C(CNCc2ccccc2O)C1c1cccn1C (stereo not shown) [TRG 2406-1] | 5.85 | 3.79 | – |
| NCCN1Cc2ccccc2C(CNCc2ccccc2O)C1c1cccc(Oc2ccc(Cl)c(Cl)c2)c1 (stereo not shown) [TRG 2406-2] | 3.86 | 7.86 | – |
| CNC(CN)CN1Cc2ccccc2C(CNCc2ccccc2O)C1c1cccc(Oc2ccc(Cl)c(Cl)c2)c1 (stereo not shown) [TRG 2406-3] | 9.69 | 12.3 | – |
| COc1ccc(Oc2cccc(C3C(CNCc4ccccc4O)c4ccccc4CN3CCN)c2)cc1 (stereo not shown) [TRG 2406-5] | 3.41 | 6.16 | – |
| CNC(CN)CN1Cc2ccccc2C(CNCc2ccccc2O)C1c1cccc(Oc2ccc(OC)cc2)c1 (stereo not shown) [TRG 2406-6] | 1.36 | 3.17 | – |
| CNC(CN)CCCCN1Cc2ccccc2C(CNCc2ccccc2O)C1c1cccc(Oc2ccc(OC)cc2)c1 (stereo not shown) [TRG 2406-7] | 1.74 | 1.23 | – |
| NCCN1Cc2ccccc2C(CNCc2ccccc2O)C1c1cccc(Oc2ccccc2)c1 (stereo not shown) [TRG 2406-8] | 5.67 | 7.48 | – |
| CNC(CN)CN1Cc2ccccc2C(CNCc2ccccc2O)C1c1cccc(Oc2ccccc2)c1 (stereo not shown) [TRG 2406-9] | 2.1 | 3.66 | – |
| CNC(CN)CCCCN1Cc2ccccc2C(CNCc2ccccc2O)C1c1cccc(Oc2ccccc2)c1 (stereo not shown) [TRG 2406-10] | 0.26 | 0.85 | – |
| CNC(CN)CN1Cc2ccccc2C(CNCc2ccccc2O)C1c1ccc(Oc2ccccc2)cc1 (stereo not shown) [TRG 2406-12] | 2.62 | 5.44 | – |
| CNC(CN)CCCCN1Cc2ccccc2C(CNCc2ccccc2O)C1c1ccc(Oc2ccccc2)cc1 (stereo not shown) [TRG 2406-13] | 1.29 | 0.18 | – |
| CCCOc1ccc(C2C(CNCc3ccccc3O)c3ccccc3CN2CCN)cc1 (stereo not shown) [TRG 2406-14] | 5.36 | 8.31 | – |
| CCCOc1ccc(C2C(CNCc3ccccc3O)c3ccccc3CN2CC(CN)NC)cc1 (stereo not shown) [TRG 2406-15] | 2.75 | 7.22 | – |
| CCCOc1ccc(C2C(CNCc3ccccc3O)c3ccccc3CN2CCCCC(CN)NC)cc1 (stereo not shown) [TRG 2406-16] | 11.6 | 2.12 | – |
| CCn1c2ccccc2c2cc(C3C(CNCc4ccccc4O)c4ccccc4CN3CCN)ccc21 (stereo not shown) [TRG 2406-20] | 3.3 | 10.8 | – |
| CCn1c2ccccc2c2cc(C3C(CNCc4ccccc4O)c4ccccc4CN3CC(CN)NC)ccc21 (stereo not shown) [TRG 2406-21] | 1.53 | 6.25 | – |
| CCn1c2ccccc2c2cc(C3C(CNCc4ccccc4O)c4ccccc4CN3CCCCC(CN)NC)ccc21 (stereo not shown) [TRG 2406-22] | 1.79 | 2.12 | – |
| CNC(CN)CCCCN1Cc2ccccc2C(CN(C)c2ccccc2)C1c1ccc(Cl)cc1Cl (stereo not shown) [TRG 2407-2] | 6.26 | 5.75 | – |
| CNC(CN)CCCCN1Cc2ccccc2C(CNc2ccccc2Cl)C1c1ccc(Cl)cc1Cl (stereo not shown) [TRG 2407-3] | 9.45 | 8.46 | – |
| CNC(CN)CCCCN1Cc2ccccc2C(CNc2ccccc2OC)C1c1ccc(Cl)cc1Cl (stereo not shown) [TRG 2407-4] | 4.12 | 3.65 | – |
| CNC(CN)CCCCN1Cc2ccccc2C(CNc2cccc(Cl)c2)C1c1ccc(Cl)cc1Cl (stereo not shown) [TRG 2407-5] | 14.7 | 8.82 | – |
| CCOc1cccc(NCC2c3ccccc3CN(CCCCC(CN)NC)C2c2ccc(Cl)cc2Cl)c1 (stereo not shown) [TRG 2407-6] | 6.97 | 3.42 | – |
| CNC(CN)CCCCN1Cc2ccccc2C(CNc2cccc(O)c2)C1c1ccc(Cl)cc1Cl (stereo not shown) [TRG 2407-7] | – | 4.38 | MC-4 IC50 [1, 5]: no fit |
| CNC(CN)CCCCN1Cc2ccccc2C(CNc2ccc(Cl)cc2)C1c1ccc(Cl)cc1Cl (stereo not shown) [TRG 2407-8] | 21.2 | 10.9 | – |
| CNC(CN)CCCCN1Cc2ccccc2C(CNc2ccc(OC)cc2)C1c1ccc(Cl)cc1Cl (stereo not shown) [TRG 2407-9] | 6.22 | 2.53 | – |
